Results reported in US20140134197A1, “Mimotopic Peptides for the Diagnosis and Treatment of Multiple sclerosis” (priority 2011, published 2014).
Counter-ions that a name gives are not always drawn. Ends that are not written are not given here.

Assay: Solubility / hydrophilicity of mimotopic peptides, free or with amino-ADOOA-ADOOA linker
Assay type: physicochemical
Settings: not given
Excerpt: Dimeric IgE complexing hinges upon disruption of the overhanging oligodendrocyte membrane surface and facilitated intracellular autoantibody inflow. […] Table 4a lists structurally unique, mimotopic, peptides serving as diagnostic and therapeutic antigens. […] Peptides used for initial diagnosis can be of maximum, unique length (column 3) or can be fractionated into pentameric, single epitope equivalents (column 5). […] The amide group is used for covalent Coupling to microplate wells. The 3,6-dioxaoctanoic acid2 construct, being very hydrophilic, solubilizes most al peptides, especially those that are relatively hydrophobic. The listed myelin, dimer-cornerstone peptide homologues (bold-highlighted) for MS therapy are useful because of their in-vivo: (a) net hydrophilicity for adequate solubility; […] The linker provides both increased hydrophilicity for enhanced solubility and serves as a point of attachment onto microtiter test plate wells. The peptide […] NO: 3) is an example of a soluble short peptide that is comprised of a singularly unique MOG surface pentamer, […]

| Compound | solubility of short therapeutic peptide | hydrophilicity / solubilization when coupled with amino-ADOOA-ADOOA linker | aggregation tendency |
| --- | --- | --- | --- |
| DHSYQE [DHSYQE] | soluble |  |  |
| DNEVFGEA |  | sufficiently hydrophilic |  |
| DNTFKD [DNTFKD] |  | sufficiently hydrophilic |  |
| HGRTQ [HGRTQ] |  | solubilize readily |  |
| KDSHHPA [Lys Asp Ser His His Pro Ala] |  | solubilize readily |  |
| LQTIQE [LQTIQE] |  | sufficiently hydrophilic |  |
| Lys Gly Thr Gln Phe (KGTQF; listed as Homo sapiens) [KTGQF] |  |  | dual molecule aggregate-forming tendencies |
| NLHRTFE [Asn Leu His Arg Thr Phe Glu] |  | sufficiently hydrophilic |  |
| PKNAW [PKNAW] |  | sufficiently hydrophilic |  |
| QDTAVT [QDTAVT] |  | sufficiently hydrophilic |  |
| YKDSHHPA |  | solubilize readily |  |

Assay: not given
Settings: Tables 3a-3e; from cited literature; CD4 T-helper cells; cited from earlier work

| Compound | Immunosuppressive Effects |
| --- | --- |
| Fc1ccc([C@@H]2CCNC[C@H]2COc2ccc3c(c2)OCO3)cc1 [Paroxetine] | Decreases CD4 T-Helper Cells. |

Same assay, conditions: Tables 3a-3e; from cited literature; cited from earlier work

| Compound | Immunosuppressive Effects |
| --- | --- |
| Cc1nnc2n1-c1ccc(Cl)cc1C(c1ccccc1)=NC2 [Alprazolam] | Inhibits proliferative responses |
| CC(C)c1c(C(=O)Nc2ccccc2)c(-c2ccccc2)c(-c2ccc(F)cc2)n1CC[C@@H](O)C[C@@H](O)CC(=O)O [Atorvastatin] | Increases in IL-10 Production. |
| CN1C(=O)CN=C(c2ccccc2)c2cc(Cl)ccc21 [Diazepam] | Markedly Suppresses Antigen- |
| O=C1NC(=O)C(c2ccccc2)(c2ccccc2)N1 [Dilantin, Phenytoin sodium] | Humoral Immune Suppressant |
| CNCCC(Oc1ccc(C(F)(F)F)cc1)c1ccccc1 (stereo not drawn) [Fluoxethine] | Decreases T Lymphocyte |
| N[C@@H](Cc1cc(I)c(Oc2cc(I)c(O)c(I)c2)c(I)c1)C(=O)O [Levoxyl, Levothyroxine] | Inhibits Cytokine |
| Nc1ccc(O)c(C(=O)O)c1 [Mesalazine] | Potent and Specific Inhibitor |
| CC(C)c1nc(N(C)S(C)(=O)=O)nc(-c2ccc(F)cc2)c1/C=C/[C@@H](O)C[C@@H](O)CC(=O)O [Rosuvastatin] | Post-Transcriptional Level |
| COc1ccc(C(CN(C)C)C2(O)CCCCC2)cc1 (stereo not drawn) [Venlafaxine] | Suppresses pro-Inflammatory |
| NS(=O)(=O)Cc1noc2ccccc12 [Zonisamide] | Suppression of IFN-gamma |

Same assay, conditions: Tables 3a-3e; from cited literature; hydrochloride; antigen-specific TH1 responses; cited from earlier work

| Compound | Immunosuppressive Effects |
| --- | --- |
| CN[C@H]1CC[C@@H](c2ccc(Cl)c(Cl)c2)c2ccccc21 [Sertraline hydrochloride] | Suppression of Antigen- |

Same assay, conditions: Tables 3a-3e; from cited literature; splenocyte viability; cited from earlier work

| Compound | Immunosuppressive Effects |
| --- | --- |
| Fc1ccc([C@@H]2CCNC[C@H]2COc2ccc3c(c2)OCO3)cc1 [Paroxetine] | Inhibit Splenocyte Viability. |
